Results taken from US20110301159A1, “KINASE INHIBITOR COMPOUNDS” (UNIVERSITY OF SOUTH FLORIDA, priority 2008, published 2011).
≈ marks a conversion by molar mass, not a printed value. Like-named read-outs stand apart in the source and are kept apart here. Values belong to the molecule of their own block, whether it stands above or below them.

Key:
[1] = tested on: Jak2-V617F expressing Human Erythroleukemia (HEL) cells; test: Inhibition of Jak2-V617F dependent HEL cell growth (trypan blue viable cell count); format: cell-based; details: for IC50: read-out: IC50 for inhibition on Jak2-V617F dependent HEL cells proliferation
[2] = tested on: Marrow derived mononuclear cells (polycythemia vera, Jak2-V617F positive); test: Ex vivo colony formation of marrow cells from a polycythemia vera patient; format: cell-based, human; details: 25 or 2.5 μM
Method: Methods: Marrow derived mononuclear cells were obtained from a person, who has been confirmed to have polycythemia vera and also identified as Jak2-V617F positive. Marrow derived mononuclear cells were washed three times in IMDM media and plated at 4×10^5 cells/mL in 1 mL methylcellulose media (0.9% methylcellulose, 30% heat inactivated FCS, 0.1 mM 2-mercaptoethanol, 0.9% BSA, 0.05% NaHCO3, 2 mM/L glutamine, penicillin, streptomycin, 50 ng/mL SCF, and 20 ng/mL IL-3 (Stem Cell Technologies, Vancouver, BC). Vehicle control (DMSO at 0.25%) or inhibitors were added at the indicated concentrations (25 or 2.5 μM). EPO (1 U/mL) was also added as indicated. The cultures were then incubated at 37° C. and 5% CO2 until assessment of colony formation at day 14. Results were expressed as the average number of colonies from duplicate cultures per 4×10^5 cells.

[3] = Aqueous solubility (MultiScreen Solubility Filter Plate); format: physicochemical; details: MultiScreen Solubility Filter Plate (Millipore), kinetic from dmso stock
Method: (§1) Methods: Jak2-V617F expressing Human Erythroleukemia (HEL) cells were plated in 96 well plates at ˜40,000 cells per well and incubated with either vehicle control (0.25% DMSO) or with 25 uM of Jak2 kinase inhibitors. Viable cell numbers were then determined at the times (0, 4, 24, 48 and 72 hours) via trypan blue exclusion and a hemocytometer. Aqueous solubility was determined using a MultiScreen® Solubility Filter Plate (Millipore) (see Quantitative method to determine drug aqueous solubility: optimization and correlation to standard methods; http://www.millipore.com/techpublications/tech1/an1730en00) and a Spectrophotometer.

[4] = tested on: Jak2-V617F expressing Human Erythroleukemia (HEL) cells; test: Inhibition of Jak2-V617F dependent HEL cell growth (trypan blue viable cell count); format: cell-based; details: for inhibition at 25 µM: Homo sapiens, HEL; for inhibition at 25 µM / % Growth Inhibition: 25 uM inhibitor
Method: as §1

[5] = tested on: Jak2-V617F expressing HEL cells; test: Apoptosis assay (Annexin V/Propidium Iodide FACS); format: cell-based, Human; details: 25 μM, 48 hours
Method: Jak2-V617F expressing HEL cells were exposed to either vehicle control (DMSO), or 25 μM of an inhibitor for 48 hours. The percentage of apoptotic cells was then determined via Annexin V/Propidim Iodide FACS analysis.

[6] = tested on: HEL cells; test: Jak2-V617F-induced hematopoietic disease in NOD-SCID mouse model (HEL cell injection); format: in vivo, NOD-SCID mice
Method: Methods: In the experiment, NOD-SCID mice, N=36. were randomized into 6 groups (n=6). Baseline peripheral blood samples and weights were taken at Day 0. At day 7, 2×10^6 HEL cells were injected into each mouse in Groups 2, 3, 4 and 5. […] Then all the mice were euthanized.
In the experiment, the following measurable endpoints were assessed. For peripheral blood, total white blood cell (WBC) counts, the percentage of blast cells, the percentage of nucleated red blood cells (RBC), and Hematocrits were measured. For bone marrow, quantitative cellularity, and Myeloid cell to erythroid cell (M:E) ratio were assessed. Further, toxicity in spleen, brain, kidney, liver, and lung using histological analysis is assessed.
Peripheral blood samples were obtained via weekly submandibular bleeds using a 21 gauge needle. Blood samples were smeared onto glass slides, stained, and dried. Peripheral blast cells on each slide were then tabulated using a pathology light microscope. The average percent of peripheral blast cells for each treatment group was then graphed as a function of time.
At necropsy, femurs from each animal were formalin fixed, de-calcified and then parrafin embedded. Parrafin sections were then made, stained with hematoxylin and eosin and dried. The number of myeloid and erythroid cells were then tabulated by a veterinary pathologist who was blind to the treatment groups. The ratio of myeloid to erythroid cells was then graphed as a function of treatment group. Further, the average number of mature and immature erythroid cells was then graphed as a function of treatment group.
Additionally, at necropsy, animals were weighed one final time and spleens were then removed from each mouse. The wet weight of each spleen was recorded and the spleen weight to body weight ratio was graphed as a function of treatment group.

[7] = tested on: Marrow derived mononuclear cells (Essential Thrombocythemia, Jak2-V617F positive); test: Ex vivo Jak2-V617F dependent megakaryocyte colony formation (essential thrombocythemia patient); format: cell-based, human; details: 25 uM, day 14
From the text: Marrow derived mononuclear cells were taken from a person, who was confirmed Essential Thrombocythemia and being Jak2-V617F positive.

[8] = target: T1, recombinant p60c-src (Homo sapiens, UniProt P12931); test: c-Src assay (in vitro kinase reaction, anti-Src pY418 Western blot); format: biochemical; details: 25 uM, 20 minutes, room temperature
T1 construct: purchased Upstate Biotechnology
Method: Approximately 4 μL (12 units) of catalytically active recombinant p60c-src (Upstate Biotechnology) was incubated in 46 μL of in vitro kinase reaction buffer (50 mM HEPES, pH 7.6, 5 mM MnCl2, 5 mM MgCl2, 100 mM NaCl, 0.5 mM DTT), either in the presence of DMSO or 25 uM Z3. The reactions were incubated for 20 minutes at room temperature and then
terminated by addition of SDS-containing buffer. The samples were Western blotted with an anti-Src (pY418) polyclonal antibody (Biosource).

solubility [3]: 272 µM
Molecule: CCN(CC)Cc1ccc(/C(C)=C(\C)c2ccc(CN(CC)CC)c(O)c2)cc1O [NB-8, (Z)- and (E)-5,5′-(But-2-ene-2,3-diyl)bis(2-((diethylamino)methyl)phenol).2HCl]
inhibition at 25 µM [4]: 100%

solubility [3]: 384 µM
Molecule: C/C(=C(\C)c1ccc(CN(C)C)c(O)c1)c1ccc(CN(C)C)c(O)c1 [NB-9, (Z)- and (E)-5,5′-(But-2-ene-2,3-diyl)bis(2-((dimethylamino)methyl)phenol).2HCl]
inhibition at 25 µM [4]: 101%

solubility [3]: 474 µM
Molecule: CCN(CC)Cc1ccc(/C=C/c2ccc(CN(CC)CC)c(O)c2)cc1O [NB-10, (Z)- and (E)-5,5′-(Ethene-1,2-diyl)bis(2-((diethylamino)methyl)phenol).2HCl]
inhibition at 25 µM [4]: 100%

solubility [3]: 484 µM (≈ 197 µg/mL)
Molecule: Oc1cc(/C=C/c2ccc(CN3CCCCC3)c(O)c2)ccc1CN1CCCCC1 [NB-12, (Z)- and (E)-5,5′-(Ethene-1,2-diyl)bis(2-(piperidin-1-ylmethyl)phenol)]
inhibition at 25 µM [4]: 100%

The next lines start with the molecule.

Molecule: CCN(CC)Cc1cc(/C=C/c2ccc(O)c(CN(CC)CC)c2)ccc1O [NB-1, (Z)- and (E)-4,4′-(Ethene-1,2-diyl)bis(2-((diethylamino)methyl)phenol)]
IC50 ([1]; Homo sapiens, HEL): ~4 µM
pathologic cell growth (colony formation at day 14) [2]: reduce pathologic cell growth
solubility [3]: 533 µM (≈ 204 µg/mL)
inhibition at 25 µM [4]: 98%
% of Cells in Apoptosis [5]: 66%
suppressing HEL cell growth compared with G6 [5]: behaves similarly to G6

Molecule: CCN(CC)Cc1ccc(/C(C)=C(/C)c2ccc(CN(CC)CC)c(O)c2)cc1O [NB-3, (Z)- and (E)-5,5′-(But-2-ene-2,3-diyl)bis(2-((diethylamino)methyl)phenol)]
solubility [3]: 460 µM (≈ 189 µg/mL)
inhibition at 25 µM [4]: 101%

Molecule: C/C(=C(/C)c1ccc(CN(C)C)c(O)c1)c1ccc(CN(C)C)c(O)c1 [NB-4, (Z)- and (E)-5,5′-(But-2-ene-2,3-diyl)bis(2-((dimethylamino)methyl)phenol)]
solubility [3]: 478 µM (≈ 169 µg/mL)
inhibition at 25 µM [4]: 101%

Molecule: CCN(CC)Cc1ccc(/C=C\c2ccc(CN(CC)CC)c(O)c2)cc1O [NB-5, (Z)- and (E)-5,5′-(Ethene-1,2-diyl)bis(2-((diethylamino)methyl)phenol)]
solubility [3]: 509 µM (≈ 195 µg/mL)
inhibition at 25 µM [4]: 101%

Molecule: CN(C)Cc1ccc(/C=C\c2ccc(CN(C)C)c(O)c2)cc1O [NB-6, (Z)- and (E)-5,5′-(Ethene-1,2-diyl)bis(2-((dimethylamino)methyl)phenol)]
solubility [3]: 538 µM (≈ 176 µg/mL)
inhibition at 25 µM [4]: ~19%

Molecule: Oc1cc(/C=C\c2ccc(CN3CCCCC3)c(O)c2)ccc1CN1CCCCC1 [NB-7, (Z)- and (E)-5,5′-(Ethene-1,2-diyl)bis(2-(piperidin-1-ylmethyl)phenol)]
solubility [3]: 495 µM (≈ 201 µg/mL)
inhibition at 25 µM [4]: 99%

Molecule: (Z) and (E)-4,4′-(Hex-3-ene-3,4-diyl)bis(2-((diethylamino)methyl)phenol) [Compound G6]
Peripheral blood counts of granulocytes, neutrophils, and eosinophils ([6]; 10 mg/kg/day): all normal
bone marrow necrosis ([6]; 10 mg/kg/day): 2 of 6
histology of brain, kidney, liver, and lung ([6]; 10 mg/kg/day): histologically normal
splenic necrosis ([6]; 10 mg/kg/day): 3 of 6
percentage of blast cells in peripheral blood ([6]; 0.1-10 mg/kg/day): reduces the percentage of blast cells in peripheral blood in a dose-dependent manner
numbers of mature and immature Erythroid cells in bone marrow ([6]; mouse, in vivo): reduced numbers of mature Erythroid cells, not immature Erythroid cells
Jak2-V617F dependent megakaryocyte colony formation [7]: blocks Jak2-V617F dependent megakaryocyte colony formation
Jak2-V617F dependent HEL cell proliferation, dose and time dependence ([1]; HEL cells): Inhibits Jak2-V617F Dependent HEL Cell Proliferation in both a dose and time dependent manner
IC50 ([1]; HEL cells): ~4 µM
pathologic cell growth (colony formation at day 14) [2]: reduce pathologic cell growth
c-Src tyrosine kinase activity [8]: no effect on c-Src tyrosine kinase activity
time required to inhibit Jak2-V617F dependent cell proliferation by 50% [4]: ~11 h
% Growth Inhibition [4]: 100%
% of Cells in Apoptosis [5]: 79%

Molecule: (Z)- and (E)-4,4′-(But-2-ene-2,3-diyl)bis(2-((diethylamino)methyl)phenol) [NB-2]
IC50 ([1]; HEL cells): ~9 µM
pathologic cell growth (colony formation at day 14) [2]: reduce pathologic cell growth
% Growth Inhibition ([4]; 25 µM): 53%
% of Cells in Apoptosis [5]: 28%
suppressing HEL cell growth compared with G6 [5]: not as effective as G6
